Our source for the IC50 values is US8557816B2, “Aurora kinase modulators and method of use” (Amgen Inc., priority 2007, dated 2013).

Read-outs that look alike come from different tables or passages of the source. Some results are limits rather than exact numbers.

In assay [1] the target is T1, AuroraB (Homo sapiens, UniProt Q96GD4).
T1 construct: 20 μL of AuroraB FL H is for a final volume of 41 μL; His
Kind of assay: AuroraB Homogeneous Time Resolved Fluorescent (HTRF) kinase assay. It counts as biochemical. The procedure:
AuroraB-Homogeneous Time Resolved Fluorescent (HTRF) Kinase Assay:
The AuroraB HTRF assay begins with AuroraB in the presence of ATP phosphorylating the biotinylated peptide Histone H3. The reaction incubates for about 90 min. the reaction is quenched by addition of detection reagents, which stop the reaction by diluting out the enzyme and chelating the metals due to the presence of EDTA. After addition, the assay is incubated for about 60 min to allow detection reagents to equilibrate.
The AuroraB HTRF assay comprises 1 μL of compound in 100% DMSO, 20 μL of ATP and biotinylated Histone H3, and 20 μL of AuroraB FL H is for a final volume of 41 μL. The final concentration of Histone H3 is 0.1 μM. […] Buffer conditions are as follows: 50 mM HEPES pH 7.5, 5 mM NaCl, 0.5 mM MgCl, 0.5 mM MnCl, 2 mM DTT, 0.05% BSA.
The assay is quenched and stopped with 160 μL of detection reagent. Detection reagents are as follows: Buffer made of 50 mM Tris, pH 7.5, 100 mM NaCl, 3 mM EDTA, 0.05% BSA, 0.1% Tween20. Added to this buffer prior to reading is Steptavidin allophycocyanin (SA-APC) at a final conc in the assay of 0.001 mg/mL, and europilated anti-phosphoHistoneH3 Ab (Eu-anti-HisH3) at a final conc of 0.064 nM.
The assay plate is read in either a Discovery or a RubyStar. The eu-anti-HisH3 is excited at 320 nm and emits at 615 nm to excite the SA-APC which in turn emits at 655 nm.
On the technique in general: In TR-FRET formats the signal depends on donor and acceptor labels being close together.

In assay [2] the target is T2, AuroraA-TPX2 (Homo sapiens, UniProt O14965).
T2 construct: 20 μL of AuroraA-TPX2 KD GST for a final volume of about 41 μL; GST
T2 sequence (O14965 133-383 limits assumed): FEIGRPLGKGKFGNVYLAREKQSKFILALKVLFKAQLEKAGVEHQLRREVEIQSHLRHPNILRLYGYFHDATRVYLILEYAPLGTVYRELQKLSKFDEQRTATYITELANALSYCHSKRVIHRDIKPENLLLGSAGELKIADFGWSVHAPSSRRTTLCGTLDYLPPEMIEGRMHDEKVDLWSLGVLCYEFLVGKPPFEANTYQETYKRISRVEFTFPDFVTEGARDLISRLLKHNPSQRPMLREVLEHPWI
T2 sequence (Q9ULW0 1-43 partner limits assumed): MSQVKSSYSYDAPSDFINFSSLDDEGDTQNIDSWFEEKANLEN
Briefly: AuroraA-TPX2 Homogeneous Time Resolved Fluorescent (HTRF) kinase assay. Particulars: average; read-out: AurA_IC50_IP (uM Avg). It counts as biochemical. The procedure:
AuroraA-TPX2-Homogeneous Time Resolved Fluorescent (HTRF) Kinase Assay:
The Aurora-A HTRF assay begins with Aurora-A in the presence of ATP phosphorylating the biotinylated peptide PLK. The reaction incubates for about 120 min. Detection reagents are added to quench the reaction. These agents stop the reaction by diluting out the enzyme and chelating the metals due to the presence of EDTA. After addition, the assay is incubated overnight to allow the detection reagents to equilibrate.
The AuroraA HTRF assay comprises 1 μL of compound in 100% DMSO, 20 μL of ATP and biotinylated PLK, and 20 μL of AuroraA-TPX2 KD GST for a final volume of about 41 μL. The final concentration of PLK is about 1 μM. […] Buffer conditions are as follows: 60 mM HEPES pH 7.5, 25 mM NaCl, 10 mM MgCl, 2 mM DTT, 0.05% BSA.
The assay is quenched and stopped with 160 μL of detection reagent. Detection reagents are as follows: Buffer made of 50 mM Tris, pH 7.5, 100 mM NaCl, 3 mM EDTA, 0.05% BSA, 0.1% Tween20. Added to this buffer prior to reading is Steptavidin allophycocyanin (SA-APC) at a final conc in the assay of 0.0005 mg/mL, and europilated anti-phosphoPLK Ab (Eu-anti-PLK) at a final conc of 0.02 nM.
The assay plate is read in either a Discovery or a RubyStar. The eu-anti-PLK is excited at 320 nm and emits at 615 nm to excite the SA-APC which in turn emits at 655 nm.

The mark [3] stands for this setting: average, read-out: AurB_IC50_IP (uM Avg).

T1 sequence (Q96GD4 whole entry): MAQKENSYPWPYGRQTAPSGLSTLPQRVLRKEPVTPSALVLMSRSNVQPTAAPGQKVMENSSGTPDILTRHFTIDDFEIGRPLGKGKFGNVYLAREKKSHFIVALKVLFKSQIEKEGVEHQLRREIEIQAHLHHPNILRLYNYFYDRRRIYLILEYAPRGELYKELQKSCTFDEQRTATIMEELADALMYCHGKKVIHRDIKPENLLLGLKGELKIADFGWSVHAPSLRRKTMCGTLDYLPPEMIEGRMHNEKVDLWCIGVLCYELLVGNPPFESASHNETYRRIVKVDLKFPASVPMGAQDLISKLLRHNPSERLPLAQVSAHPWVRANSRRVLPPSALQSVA

As to `COc1cnc2c(Oc3ccc(Nc4nnc(-c5cccc(C#N)c5)c5ccccc45)cc3)ccnc2c1` [Example 29, 3-(4-(4-(7-methoxy-1,5-naphthyridin-4-yloxy)phenylamino)phthalazin-1-yl)benzonitrile], the IC50 in assay [1] (setting [3]) turned out to be 0.018 µM; in assay [2] it was 0.139 µM.

For the compound `COc1cnc2c(Oc3ccc(Nc4nnc(-c5nccn5C)c5ccccc45)cc3)ccnc2c1` [Example 30, N-(4-(7-methoxy-1,5-naphthyridin-4-yloxy)phenyl)-4-(1-methyl-1H-imidazol-2-yl)phthalazin-1-amine], in assay [2], the IC50 was found to be 1.39 µM.

Consider `COc1cnc2c(Oc3ccc(Nc4nnc(C#CC(C)(C)C)c5ccccc45)cc3)ccnc2c1` [Example 31, 4-(3,3-dimethylbut-1-ynyl)-N-(4-(7-methoxy-1,5-naphthyridin-4-yloxy)phenyl)phthalazin-1-amine], for which the IC50 in assay [1] (setting [3]) amounted to 0.008 µM; in assay [2], 0.033 µM.

For the compound `COc1cnc2c(Oc3ccc(Nc4nnc(N5CCCCCC5)c5ccccc45)cc3)ccnc2c1` [Example 32, 4-(azepan-1-yl)-N-(4-(7-methoxy-1,5-naphthyridin-4-yloxy)phenyl)phthalazin-1-amine], the IC50 in assay [1] (setting [3]) was 0.009 µM; in assay [2], 0.016 µM.

`Clc1ccc(-c2nnc(Nc3ccc(Sc4ccnc5cccnc45)cc3)c3ccccc23)cc1` [Example 33, N-(4-(1,5-naphthyridin-4-ylthio)phenyl)-4-(4-chlorophenyl)phthalazin-1-amine]: the IC50 in assay [1] (setting [3]) was 0.003 µM; in assay [2], 0.022 µM.

On to `COc1cnc2c(Nc3cnc(Nc4nnc(-c5ccccc5)c5ccccc45)nc3)ccnc2c1` [Example 36, N^5-(7-Methoxy-1,5-naphthyridin-4-yl)-N^2-(4-phenylphthalazin-1-yl)pyrimidine-2,5-diamine], for which the values for the IC50 in assay [1] (setting [3]) and in assay [2] were 0.004 µM and 0.038 µM, respectively.

Regarding `COc1ccc(-c2nnc(Nc3ccc(Oc4ccnc5cc(OC)cnc45)cc3)c3ccccc23)cc1` [Example 37, N-(4-(7-methoxy-1,5-naphthyridin-4-yloxy)phenyl)-4-(4-methoxyphenyl)phthalazin-1-amine], the values for the IC50 in assay [1] (setting [3]) and in assay [2] were 0.004 µM and 0.02 µM, respectively.

As to `COc1cnc2c(Oc3ccc(Nc4nnc(-c5ccc(C(C)(C)C)cc5)c5ccccc45)cc3)ccnc2c1` [Example 38, 4-(4-tert-butylphenyl)-N-(4-(7-methoxy-1,5-naphthyridin-4-yloxy)phenyl)phthalazin-1-amine], the IC50 in assay [1] (setting [3]) was found to be 0.017 µM; in assay [2], 0.023 µM.

In the case of `COc1ccc2c(Oc3ccc(Nc4nnc(-c5ccc(C(F)(F)F)cc5)c5ccccc45)cc3)c(F)cnc2c1` [Example 39, N-(4-(3-fluoro-7-methoxyquinolin-4-yloxy)phenyl)-4-(4-(trifluoromethyl)phenyl) phthalazin-1-amine], the IC50 in assay [1] (setting [3]) was 1 µM.

Regarding `COc1cnc2c(Nc3ccc(Nc4nnc(-c5ccccc5)c5ccccc45)cc3)ccnc2c1` [Example 40, N^1-(7-methoxy-1,5-naphthyridin-4-yl)-N^4-(4-phenylphthalazin-1-yl)benzene-1,4-diamine], the IC50 in assay [1] (setting [3]) is 0.007 µM; in assay [2], 0.044 µM.

As to `COc1cnc2c(Oc3ccc(Nc4nnc(-c5ccccc5)c5ccccc45)cn3)ccnc2c1` [Example 41, N-(6-(7-methoxy-1,5-naphthyridin-4-yloxy)pyridin-3-yl)-4-phenylphthalazin-1-amine], the IC50 in assay [1] (setting [3]) is 0.009 µM; in assay [2], 0.079 µM.

In the case of `N#Cc1ccc2c(Oc3ccc(Nc4nnc(-c5ccccc5)c5ccccc45)cn3)ccnc2c1` [compound 174, 4-(5-(4-phenylphthalazin-1-ylamino)pyridin-2-yloxy)quinoline-7-carbonitrile], the IC50 in assay [1] (setting [3]) came out at 5 µM.

On to `COc1cnc2c(Oc3ccc(Nc4nnc(-c5cccc(N6CCCCC6)c5)c5ccccc45)cc3)ccnc2c1` [compound 197, N-(4-((7-(methyloxy)-1,5-naphthyridin-4-yl)oxy)phenyl)-4-(3-(1-piperidinyl)phenyl)-1-phthalazinamine], for which, in assay [2], the IC50 amounted to 0.034 µM.

`Cc1ccc(-c2nnc(Nc3ccc(Oc4ccnc5cc(-c6cncn6C)sc45)cc3)c3ccccc23)nc1` [compound 255, N-(4-((2-(1-methyl-1H-imidazol-5-yl)thieno[3,2-b]pyridin-7-yl)oxy)phenyl)-4-(5-methyl-2-pyridinyl)-1-phthalazinamine]: the IC50 in assay [2] was 0.005 µM.

On to `Cn1cncc1-c1cc2nccc(Oc3ccc(Nc4nnc(-c5ccc(Cl)cc5)c5ccccc45)cn3)c2s1` [compound 267, 4-(4-chlorophenyl)-N-(6-((2-(1-methyl-1H-imidazol-5-yl)thieno[3,2-b]pyridin-7-yl)oxy)-3-pyridinyl)-1-phthalazinamine], for which the IC50 in assay [2] was determined as 0.011 µM.

In the case of `COc1cc2nncc(Oc3ccc(Nc4nnc(-c5ccc(Cl)cc5)c5ccccc45)cc3)c2cc1OC` [compound 282, N-(4-((6,7-bis(methyloxy)-4-cinnolinyl)oxy)phenyl)-4-(4-chlorophenyl)-1-phthalazinamine], in assay [1] (setting [3]), the IC50 was found to be 0.189 µM.

On to `Fc1cc(F)c2c(Sc3ccc(Nc4nnc(-c5ccccc5)c5ccccc45)cc3)ccnc2c1` [compound 295, N-(4-((5,7-difluoro-4-quinolinyl)thio)phenyl)-4-phenyl-1-phthalazinamine], for which, in assay [1] (given as class symbol, read-out: AurB_IC50_IP (class symbol)), the IC50 is below 0.1 µM.

Regarding `Cc1noc(-c2cc3nccc(Sc4ccc(Nc5nnc(-c6ccccc6)c6ccccc56)cc4)c3s2)n1` [compound 303, N-(4-((2-(3-methyl-1,2,4-oxadiazol-5-yl)thieno[3,2-b]pyridin-7-yl)thio)phenyl)-4-phenyl-1-phthalazinamine], the IC50 in assay [1] (setting [3]) turned out to be 0.07 µM.

`Fc1cc(F)c2c(Sc3ccc(Nc4nnc(-c5ccccc5)c5ccccc45)cc3)ccnc2c1` [compound 311, N-(4-((5,7-difluoro-4-quinolinyl)thio)phenyl)-4-phenyl-1-phthalazinamine]: in assay [1] (setting [3]), the IC50 came out at 0.093 µM.

For the compound `Cc1noc(-c2cc3nccc(Sc4ccc(Nc5nnc(-c6ccccc6)c6ccccc56)cc4)c3s2)n1` [compound 318, N-(4-((2-(3-methyl-1,2,4-oxadiazol-5-yl)thieno[3,2-b]pyridin-7-yl)thio)phenyl)-4-phenyl-1-phthalazinamine], in assay [1] (setting [3]), the IC50 stood at 0.07 µM.

On to `Clc1ccc(-c2nnc(Nc3ccc(Sc4ccnc5ccccc45)cc3)c3ccccc23)cc1` [compound 333, 4-(4-chlorophenyl)-N-(4-(quinolin-4-ylthio)phenyl)phthalazin-1-amine], for which, in assay [1] (setting [3]), the IC50 amounted to 0.036 µM.

As for `Clc1ccc(-c2nnc(Nc3ccc(CN4CCOc5ccccc54)cc3)c3ccccc23)cc1` [compound 349, 4-(4-chlorophenyl)-N-(4-((2,3-dihydrobenzo[b][1,4]oxazin-4-yl)methyl)phenyl)phthalazin-1-amine], in assay [1] (setting [3]), the IC50 was 0.045 µM.

Consider `CNC(=O)c1cc(Sc2ccc(Nc3nnc(-c4ccc(Cl)cc4)c4ccccc34)cc2)ccn1` [compound 360, 4-(4-(4-(4-chlorophenyl)phthalazin-1-ylamino)phenylthio)-N-methylpicolinamide], for which the IC50 in assay [1] (setting [3]) amounted to 0.345 µM.

As for `Clc1ccc(-c2nnc(Nc3ccc(Oc4cnnc5ccc(Br)cc45)cc3)c3ccccc23)cc1` [compound 369, N-(4-(6-bromocinnolin-4-yloxy)phenyl)-4-(4-chlorophenyl)phthalazin-1-amine], the IC50 in assay [1] (setting [3]) is 3 µM.
